From US20220362254A1, “METHODS FOR REPROGRAMMING CANCER CELLS” (Thomas Jefferson University, priority 2019, published 2022)

What was measured:
[1] = test system: LXRa; assay: Immunostaining of LXRa localisation in HUT78 cells; assay type: cell-based, human; conditions: 1 μM GW3965, untreated: mostly in the cytoplasm
Experimental: (§1) FIGS. 15A-15C illustrate the effect of EPZ and small molecule ligand treatment on TF binding. […] Cells were immunostained with antibodies to LXRa (left), and GR (right). Nuclei stained by DAPI are shown in the lower panel. […] In FIG. 15C, T-ALL CCRF-HSB-2 cells were untreated or treated for 6 hr with 5 μM of ISX9, or pre-treated with 0.5 μM EPZ and then treated for 6 hr with 5 μM of ISX9. In FIG. 15B and FIG. 15C, DNA was labeled with EdU for 15 min. In FIG. 15B, CAA was performed with antibodies to H3K27me3 (left), LXRa (middle), and GR (right). In FIG. 15C, with antibody to MEF-2. PLA signals are shown in the lower panel. The schemes above show the state of condensation of nascent chromatin.

[2] = test system: LXRa; assay: CAA: binding of LXRa to nascent DNA in HUT78 cells; assay type: cell-based, human; conditions: 6 hr 1 μM GW3965, no EPZ
Experimental: as §1
(§2) Chromatin assembly assay: Cells were grown on chamber slides, pulse-labeled with 5 μM EdU and fixed at room temperature with 4% formaldehyde in PBS for 15 min, washed with PBS, and permeabilized with 0.3% Triton for 15 min. Cells were subjected to Click-iT reaction with biotin-azide for 30 min. […] The results of CAA experiments shown in FIG. 1A were quantified by counting the number of PLA signals per EdU-labeled nuclei in 50 cells of each of the three independent experiments. The nature of the results in the rest of the figures alleviated the need to quantify the results of these assays.

[3] = test system: PU.1; assay: CAA: recruitment of PU.1 to nascent DNA in CD34+ HPCs; assay type: cell-based, human; conditions: CD34+ HPCs induced with M-CSF 12 hr
Text: (§3) FIGS. 5A-5B illustrate that fast accumulation of post-replicative H3K27me3 leads to decreased recruitment of lineage-determining TFs to DNA. In FIG. 5A, CD34^+ cells were induced toward myeloid differentiation with G-CSF (left) or M-CSF (middle), or erythroid differentiation with EPO (right) for 12 hr. During the induction period cells were left untreated (upper panels) or treated with the GSKJ4 inhibitor of the H3K27me3 de-methylases (KDMs) UTX and JMJD3 (lower panels). DNA was pulse-labeled with EdU for 15 min and chased to 1 hr. CAA was performed between nascent DNA (biotin) and H3K27me3 (left columns) or (in the right columns) C/EBPa (left), PU.1 (middle) or GATA-1 (right). […] In FIG. 5B, quantification of the results of CAA experiments was determined by counting the number of PLA signals per EdU-labeled nuclei in 50 cells/each of the three independent experiments.
as §2, with “15” for “15 min. Cells were subjected to Click-iT reaction with biotin-azide for 30”, “assays. […]” for “assays.”

[4] = test system: GATA3; assay: CAA: recruitment of GATA3 to nascent DNA in T cells (Th2); assay type: cell-based; conditions: Th2 pathway, 10 μM GSKJ4 for 5 hr
Experimental: (§4) FIG. 6 illustrates that fast accumulation of post-replicative H3K27me3 leads to decreased recruitment of lineage-determining TFs to DNA during differentiation of T cells. Naive T cells were primed for 12 hr and stimulated to Th1 (left, middle) or Th2 (right) pathways. Cells were untreated or treated with 10 μM of GSKJ4 for 5 hr, labeled with EdU for 15 min (left) or pulse-labeled for 1 hr (middle and right). CAA was performed with antibodies to H3K27me3 (left), T-bet (middle) and GATA3 (right).
as §2
(§5) New approaches to study the fate of chromatic-associated proteins following DNA replication were developed. […] Cells can be then examined for specificity of interactions (e.g. specific PLA signals are detected only in EdU-labeled nuclei), and by assessing tissue specificity using relevant protein markers. […]

[5] = test system: T-bet; assay: CAA: recruitment of T-bet to nascent DNA in T cells (Th1); assay type: cell-based; conditions: Th1 pathway, 10 μM GSKJ4 for 5 hr
Experimental: as §4, §2, §5

[6] = test system: C/EBPa; assay: CAA: recruitment of C/EBPa to nascent DNA in CD34+ HPCs; assay type: cell-based, human; conditions: CD34+ HPCs induced with G-CSF 12 hr
Text: as §3
as §2, with “15” for “15 min. Cells were subjected to Click-iT reaction with biotin-azide for 30”, “assays. […]” for “assays.”

[7] = test system: H3K27me3; assay: Chromatin assembly assay (CAA): H3K27me3 on nascent DNA of CD34+ HPCs; assay type: cell-based, human; conditions: CD34+ HPCs exposed to GSKJ4 during 12 hr induction; EdU 15 min, chased to 1 hr
Text: as §3
as §2, with “15” for “15 min. Cells were subjected to Click-iT reaction with biotin-azide for 30”, “assays. […]” for “assays.”

[8] = test system: GATA-1; assay: CAA: recruitment of GATA-1 to nascent DNA in CD34+ HPCs; assay type: cell-based, human; conditions: CD34+ HPCs induced with EPO 12 hr
Text: as §3
as §2, with “15” for “15 min. Cells were subjected to Click-iT reaction with biotin-azide for 30”, “assays. […]” for “assays.”

[9] = test system: GR target genes; assay: qRT-PCR of differentiation-associated (GR target) genes in THP-1, SEM and HH cells; assay type: cell-based, human; conditions: 24 hr
Experimental: Graphs show induction of transcription of GR target genes. […] Graphs show induction of transcription of GR target genes. FIG. 17C The T-ALL HH cells were untreated (Untr) or treated with 1 μM EPZ for 24 hr. […] Bottom graph, cells were then treated with 1 μM of ISX-9 for 72 hr or with combinations of EPZ and ISX9. Analysis by qRT-PCR.
Gene expression analysis by RT-qPCR: Total RNA was isolated directly from freshly collected hESCs with TRIzol and for mESCs with High Pure RNA Isolation Kit. cDNA was synthesized by using 1 μg total RNA in a 20 μL reaction with Superscript III and oligo (dT) for hESC or random hexamers (Life Tech) for mECS. After reverse transcription was complete, one microliter of RNase H was added to each reaction tube, and the tubes were incubated for 20 min at 37° C. before proceeding to PCR. Real-time PCR was carried out on a 7500 Real-Time PCR System using the 2× Power SYBR green PCR master mix. GAPDH was used as an internal control. All PCR products were checked by running an agarose gel for the first time and by doing dissociation assay every time to exclude the possibility of multiple products. PCR analyses were conducted in triplicate for each sample.
Graphs show induction of transcription of GR target genes. […] Graphs show induction of transcription of GR target genes. […]

[10] = test system: H3K27me3; assay: CAA: H3K27me3 on nascent chromatin of TCL cells (HUT78); assay type: cell-based, human
Experimental: FIG. 10B: HUT78 cells were induced with 0.2 μM of RXR for the indicated times. Cells were labeled with EdU for 15 min, and CAA was performed between Biotin (EdU) and H3K27me3 antibody. PLA only is shown in the lower panel.
FIGS. 15A-15C illustrate the effect of EPZ and small molecule ligand treatment on TF binding. […] Cells were immunostained with antibodies to LXRa (left), and GR (right). Nuclei stained by DAPI are shown in the lower panel. […] In FIG. 15C, T-ALL CCRF-HSB-2 cells were untreated or treated for 6 hr with 5 μM of ISX9, or pre-treated with 0.5 μM EPZ and then treated for 6 hr with 5 μM of ISX9. In FIG. 15B and FIG. 15C, DNA was labeled with EdU for 15 min. […]
as §2, with “15” for “15 min. Cells were subjected to Click-iT reaction with biotin-azide for 30”
New approaches to study the fate of chromatic-associated proteins following DNA replication were developed. […] Reliable pulse-chase EdU labeling in cells can be detected from 3-5 min to several hours. […]

[11] = test system: HL-60 cells; conditions: an APL cell line; cited from earlier work
[12] = test system: Y641 and A677 mutants of EZH2; conditions: cited from earlier work
[13] = molecular target: EZH2 (Homo sapiens, UniProt Q15910); conditions: also inhibits other methyltransferases; cited from earlier work
Sequence of EZH2 (Q15910 whole entry): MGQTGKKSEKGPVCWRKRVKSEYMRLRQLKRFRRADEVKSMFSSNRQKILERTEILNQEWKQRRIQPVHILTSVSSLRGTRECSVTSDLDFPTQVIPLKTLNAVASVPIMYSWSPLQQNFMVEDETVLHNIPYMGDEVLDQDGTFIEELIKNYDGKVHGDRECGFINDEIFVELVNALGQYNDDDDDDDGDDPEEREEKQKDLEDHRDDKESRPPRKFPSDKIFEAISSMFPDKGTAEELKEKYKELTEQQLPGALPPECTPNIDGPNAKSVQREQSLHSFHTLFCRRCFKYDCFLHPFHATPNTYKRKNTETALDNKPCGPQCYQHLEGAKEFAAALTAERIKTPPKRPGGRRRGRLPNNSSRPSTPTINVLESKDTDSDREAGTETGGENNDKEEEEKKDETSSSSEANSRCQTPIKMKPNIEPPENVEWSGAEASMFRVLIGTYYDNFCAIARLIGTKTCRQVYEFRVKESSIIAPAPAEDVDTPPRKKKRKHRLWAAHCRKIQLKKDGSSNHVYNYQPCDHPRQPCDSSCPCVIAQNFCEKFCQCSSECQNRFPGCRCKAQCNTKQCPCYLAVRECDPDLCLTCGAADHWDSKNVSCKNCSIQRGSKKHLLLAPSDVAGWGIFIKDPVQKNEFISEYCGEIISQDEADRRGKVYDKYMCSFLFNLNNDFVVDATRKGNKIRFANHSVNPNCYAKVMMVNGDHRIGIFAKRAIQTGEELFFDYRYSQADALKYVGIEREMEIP
Sequence of EZH2 (O75530 whole entry partner): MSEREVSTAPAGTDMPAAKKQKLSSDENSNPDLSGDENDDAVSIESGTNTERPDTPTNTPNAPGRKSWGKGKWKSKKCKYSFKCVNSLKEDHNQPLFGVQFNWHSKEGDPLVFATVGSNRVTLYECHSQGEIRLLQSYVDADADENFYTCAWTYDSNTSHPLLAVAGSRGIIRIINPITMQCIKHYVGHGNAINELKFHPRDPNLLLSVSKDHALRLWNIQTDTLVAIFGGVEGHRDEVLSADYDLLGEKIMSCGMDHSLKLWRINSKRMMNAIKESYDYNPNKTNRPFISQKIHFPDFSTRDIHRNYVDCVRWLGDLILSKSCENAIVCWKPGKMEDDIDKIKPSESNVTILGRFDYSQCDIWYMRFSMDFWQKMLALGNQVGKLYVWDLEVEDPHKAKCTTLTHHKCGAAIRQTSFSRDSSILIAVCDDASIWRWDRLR
Sequence of EZH2 (Q15022 whole entry partner): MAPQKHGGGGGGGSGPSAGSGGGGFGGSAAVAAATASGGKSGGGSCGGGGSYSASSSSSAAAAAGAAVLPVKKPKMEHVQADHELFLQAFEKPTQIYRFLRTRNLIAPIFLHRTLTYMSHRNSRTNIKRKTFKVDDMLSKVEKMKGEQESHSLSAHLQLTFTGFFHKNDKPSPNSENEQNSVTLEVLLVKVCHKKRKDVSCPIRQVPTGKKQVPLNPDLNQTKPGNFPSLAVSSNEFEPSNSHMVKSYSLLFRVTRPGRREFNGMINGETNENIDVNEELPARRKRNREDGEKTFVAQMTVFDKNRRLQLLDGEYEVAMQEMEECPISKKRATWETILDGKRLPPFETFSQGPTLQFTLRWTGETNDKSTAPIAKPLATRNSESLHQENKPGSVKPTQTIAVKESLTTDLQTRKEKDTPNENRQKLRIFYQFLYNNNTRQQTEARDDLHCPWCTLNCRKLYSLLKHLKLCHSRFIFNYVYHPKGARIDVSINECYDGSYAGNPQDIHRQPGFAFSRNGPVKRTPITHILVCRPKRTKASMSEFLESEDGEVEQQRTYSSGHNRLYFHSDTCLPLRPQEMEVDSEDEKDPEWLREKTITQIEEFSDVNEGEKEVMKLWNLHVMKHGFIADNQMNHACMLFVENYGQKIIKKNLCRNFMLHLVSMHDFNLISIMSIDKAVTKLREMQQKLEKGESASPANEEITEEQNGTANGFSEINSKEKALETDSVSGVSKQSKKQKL

[14] = test system: THP-1 Luc+ cells; assay: THP-1 Luc+ xenograft AML model, bioluminescence; assay type: in vivo; conditions: NRG mice, THP-1 Luc+ 1×10^6/mouse; 30 days post injection
Text: NRG were mice injected with THP-1 Luc+ cells, an especially aggressive AML line (1×10^6/mouse). 14 days post-injection, mice were imaged and left untreated (Controls), treated with EPZ alone, Dexa alone and ISX9 alone for 16 days, or pre-treated (2 days) with EPZ and co-treated with Dexa and EPZ (Dexa+EPZ) or with ISX9 and EPZ (ISX9+EPZ) for 14 additional days.

[15] = test system: HH, HUT78, Jurkat E6.1 and CCRF-HSB-2 cells; assay: Cell viability screen of TCL cells (flow cytometry with Sytox Green); assay type: cell-based, human; conditions: HUT78, Jurkat E6.1, CCRF-HSB-2, with and without 1 μM EPZ 24 hrs, then 10 days
Experimental: (§6) Sezary syndrome (SS) cells HH (FIG. 12A) and HUT78 (FIG. 12B), and T-cell acute lymphoblastic leukemia (T-ALL) cells Jurkat E6.1 (FIG. 12C) and CCRF-HSB-2 (FIG. 12D) were grown with and without 1 μM EPZ for 24 hrs. Indicated small molecule compounds were added in indicated concentrations and cells were grown for an additional 10 days.
To test the idea that restoring the ability of cells to de-condense nascent chromatin may enable reprogramming of TCLs, a two-step induction was devised: Cells were first treated with the inhibitors of the EZH1/2 HMTs, and then induced with small molecule ligands known to activate specific TFs. […] A library of small molecules was compiled that included ligands for nuclear hormone receptors, cytokines, ligands for GPCRs, and small molecules that are used to reprogram mature cells into pluripotent cells (FIG. 11). Since different ligands may induce reprogramming of leukemic cells into different lineages, it was not possible to use specific differentiation markers at initial stages of these screens, and therefore cell viability was used as a readout for the initial screens. The earliest effects on cell viability were observed after 5 days of treatment, and therefore screens for cell viability (flow cytometry with Sytox green) were performed at days 8-11. […]

[16] = test system: MEF2; assay: CAA: binding of MEF2 to nascent chromatin in CCRF-HSB-2 cells; assay type: cell-based, human; conditions: 5 μM ISX9 6 hr, with or without 0.5 μM EPZ pre-treatment
Experimental: as §1, §2

[17] = test system: AML cell lines THP-1, K562 and KG-1a; assay: Cell viability of AML cell lines (flow cytometry with Sytox Green); assay type: cell-based, human; conditions: THP-1, K562, KG-1a; performed as in FIG. 12
Experimental: as §6
The assays were performed as described in FIG. 12.
Similar experiments were performed with the AML cell lines THP-1, K562 and KG-1a.

[18] = test system: all tested leukemias; assay: In vitro assays with cultured leukemic cells of various leukemia types; assay type: cell-based; conditions: cell lines of various leukemia types
Experimental: Leukemic cells from patients can be established in short-term culture for about 10 days. During this time, these cells are screened for the best possible reprogramming agent, which causes reprogramming (e.g. differentiation), loss of cell viability and apoptosis. […] These assays include cell viability, apoptosis induction, and examining cell differentiation markers. Thus, within 7-10 days, the most efficient molecules are determined, which induce reprogramming of leukemic cells, which leads to inhibition of cell viability and induction of apoptosis in individual patients. Indeed, similar studies using a number of different cell lines of various leukemia types have seen differences in responses to various reprogramming agents (FIG. 14).

Compound: O=C(O)Cc1cccc(OCCCN(Cc2cccc(C(F)(F)F)c2Cl)CC(c2ccccc2)c2ccccc2)c1 [GW3965]
- localisation of LXRa after induction with ligand [1]: exclusively nuclear
- binding of LXRa to DNA, ligand alone [2]: not able to bind to DNA

Compound: CCOC(=O)CCNc1cc(N2CCc3ccccc3CC2)nc(-c2ccccn2)n1 [GSKJ4]
- recruitment of the TF PU.1 [3]: strongly inhibited
- recruitment of GATA3 to nascent DNA [4]: inhibition
- recruitment of T-bet to nascent DNA [5]: inhibition
- recruitment of the TF C/EBPa [6]: strongly inhibited
- accumulation of H3K27me3 following DNA replication [7]: strongly increased
- recruitment of the TF GATA-1 [8]: strongly inhibited

Compound: C[C@]12C=CC(=O)C=C1CC[C@@H]1[C@@H]2C(=O)C[C@@]2(C)[C@H]1CC[C@]2(O)C(=O)CO [Prednisone]
- expression of differentiation-associated genes vs untreated cells [9]: no statistical difference
- level of H3K27me3 on 15 min-labeled nascent DNA ([10]; HUT78 cells, 0.2 μM, through 10 hr of induction): remained unchanged

Compound: CC[C@H](C)n1cc(C)c2c(C(=O)NCc3c(C)cc(C)[nH]c3=O)cc(-c3ccc(N4CCNCC4)nc3)cc21 [GSK126]
- levels of global and nascent chromatin marked with H3K27me3 ([10]; 24 hr, 0.5-1 μM range, tested by CAA): marked decrease

Compound: CC1=C(/C=C/C(C)=C/C=C/C(C)=C/C(=O)O)C(C)(C)CCC1 [ATRA, all-trans retinoic acid]
- terminal differentiation of cells [11]: around 90%

Compound: Cc1cc(C)c(CNC(=O)c2cc(-c3ccc(CN4CCOCC4)cc3)cc3c2cnn3C2CCCC2)c(=O)[nH]1 [EPZ005687]
- inhibition of the Y641 and A677 mutants of EZH2 [12]: can also inhibit

Compound: Nc1nccc2c1ncn2[C@@H]1C=C(CO)[C@@H](O)[C@H]1O [DZNep, 3-deazaneplanocin A]
- specificity to EZH2 [13]: not specific to EZH2

Compound: arsenic trioxide [ATO]
- terminal differentiation of cells [11]: around 90%

Compound: O=C(NC1CC1)c1cc(-c2cccs2)on1 [ISX-9]
- THP-1 cell growth / outgrowth (bioluminescence fold-changes) vs untreated control animals [14]: little effect
- inhibition of cell viability of TCL cells [15]: effective
- binding of activated MEF2 to nascent chromatin [16]: occurs only following de-condensation of chromatin by EPZ
- inhibition of cell viability of AML cell lines [17]: induced inhibition of cell viability in all AML cell lines
- efficiency as reprogramming agent across leukemias [18]: efficient in all tested leukemias
